Values of other authors as cited in patent US6793912B2, “Treatment of cancers by inhalation of stable platinum-containing formulations” (Transave Inc., priority 2001, dated 2004).

Conditions: administered by inhalation vs intravenously

SMILES: N.N.[Cl][Pt][Cl] [Cisplatin, cis-diamminedichloroplatinum(II)]
- dose required to elicit a response in animal models, more effective in the lung than intravenously: 10-100 fold
